Measurements published in patent US20230021483A1, “[…] […] METHOD AND CLASSIFICATION OF PHARMACEUTICAL COMPONENTS BY USING TRANSCRIPTOMES” (National Institutes of Biomedical Innovation, Health and …, priority 2016, published 2023).
Where “and” joins values, the source holds several entries; their conditions need not be identical. Identical values can stand only once.

Columns and labels:
[1] = literature reports; cited from earlier work
[2] = tested on: preferentially upregulated genes in LV, SP, LN; test: Z-score-based differential gene expression analysis (adjuvant group- or adjuvant-associated genes, 40 module mapping, TargetMine annotation); type: in vivo, C57BL/6 mice; parameters: key to z sum, 1458589_at ---: sum of the per-gene fold-change z-scores of the triplicate samples; conditions: ID, LN
How it was run: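 Per-sample fold-change values converted to gene-wise z-scores within each organ's data set, then triplicate z-scores summed per adjuvant. Genes with summed score >3 taken as preferentially expressed; gene groups defined by combined per-adjuvant z-score thresholds (z>1 to z>3) specific to each organ.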

Compound: Nc1nc2c(ncn2[C@@H]2O[C@@H]3COP(=O)(O)O[C@H]4[C@@H](O)[C@H](n5cnc6c(=O)[nH]c(N)nc65)O[C@@H]4COP(=O)(O)O[C@H]3[C@H]2O)c(=O)[nH]1 [cdiGMP, Cyclic diguanylate monophosphate]
- Th response induced [1]: appears to induce Th1 responses
- z sum, 1428027_at LOC100653389 ([2]; Modules 26): 3.943
- z sum, 1419721_at Niacr1 ([2]; Modules 27): 3.925
- z sum, 1418424_at Tnfaip6 ([2]; Modules 29): 3.961
- z sum, 1419534_at Olr1 ([2]; Modules 29): 3.953
- z sum, 1421457_a_at Samsn1 ([2]; Modules 29): 3.927
- z sum, 1422305_at Ifnb1 ([2]; Modules 29): 3.959
- z sum, 1423028_at Ifna2 ([2]; Modules 29): 3.966
- z sum, 1425837_a_at Ccrn4l ([2]; Modules 29): 3.961
- z sum, 1436387_at C330006P03Rik///Homer1 ([2]; Modules 29): 3.967
- z sum, 1439349_at Sbno2 ([2]; Modules 29): 3.94
- z sum, 1444010_at Eif4e ([2]; Modules 29): 3.936
- z sum, 1448325_at Ppp1r15a ([2]; Modules 29): 3.957
- z sum, 1449311_at Bach1 ([2]; Modules 29): 3.924
- z sum, 1450297_at Il6 ([2]; Modules 29): 3.956
- z sum, 1455197_at Rnd1 ([2]; Modules 29): 3.976
- z sum, 1455899_x_at Socs3 ([2]; Modules 29): 3.93
- z sum, 1417252_at Ptgs2 ([2]; Modules 34): 3.953
- z sum, 1417263_at Ptgs2 ([2]; Modules 34): 3.945
- z sum, 1419132_at Tfr2 ([2]; Modules 34): 3.95
- z sum, 1421473_at Il1a ([2]; Modules 34): 3.96
- z sum, 1439981_at Tespa1 ([2]; Modules 35): 3.95
- z sum, 1441843_s_at 5230400M03Rik ([2]; Modules 35): 3.967
- z sum, 1442556_at --- ([2]; Modules 35): 3.981
- z sum, 1443414_at C78513 ([2]; Modules 35): 3.922
- z sum, 1444598_at --- ([2]; Modules 35): 3.93
- z sum, 1445534_at --- ([2]; Modules 35): 3.938
- z sum, 1446245_at --- ([2]; Modules 35): 3.919
- z sum, 1457944_at --- ([2]; Modules 35): 3.94
- z sum, 1458376_at B930025B16Rik ([2]; Modules 35): 3.963
- z sum, 1459144_at --- ([2]; Modules 35): 3.966
- z sum, 1425687_at Cflar ([2]; Modules 36): 3.968
- z sum, 1427736_a_at Ccrl2 ([2]; Modules 36): 3.958
- z sum, 1449169_at Has2 ([2]; Modules 36): 3.922
- z sum, 1453636_at Pcgf5 ([2]; Modules 36): 3.972
- z sum, 1457888_at --- ([2]; Modules 36): 3.925
- z sum, 1419508_at Ripk1 ([2]; Modules 37): 3.938
- z sum, 1421578_at Ccl4 ([2]; Modules 37): 3.99
- z sum, 1421679_a_at Cdkn1a ([2]; Modules 37): 3.98
- z sum, 1424638_at Cdkn1a ([2]; Modules 37): 3.93
- z sum, 1433508_at Klf6 ([2]; Modules 37): 3.947
- z sum, 1434350_at Csrnp1 ([2]; Modules 37): 3.966
- z sum, 1439680_at Tnfsf10 ([2]; Modules 37): 3.927
- z sum, 1448724_at Cish ([2]; Modules 37): 3.94
- z sum, 1451340_at Arid5a ([2]; Modules 37): 3.953
- z sum, 1453851_a_at Gadd45g ([2]; Modules 37): 3.961
- z sum, 1457404_at Nfkbiz ([2]; Modules 37): 3.989
- z sum, 1458589_at --- ([2]; Modules 37): 3.945
- z sum, 1422054_a_at 5kil ([2]; Modules 40): 3.92
- z sum, 1428735_at Cd69 ([2]; Modules 40): 3.941
- z-score of fold change, 1428027_at LOC100653389 ([2]; samples x1-x3, Modules 26): 1.302 and 1.534 and 1.106
- z-score of fold change, 1419721_at Niacr1 ([2]; samples x1-x3, Modules 27): 1.493 and 1.403 and 1.03
- z-score of fold change, 1418424_at Tnfaip6 ([2]; samples x1-x3, Modules 29): 1.141 and 1.631 and 1.189
- z-score of fold change, 1419534_at Olr1 ([2]; samples x1-x3, Modules 29): 1.484 and 1.094 and 1.375
- z-score of fold change, 1421457_a_at Samsn1 ([2]; samples x1-x3, Modules 29): 1.437 and 1.192 and 1.298
- z-score of fold change, 1422305_at Ifnb1 ([2]; samples x1-x3, Modules 29): 0.997 and 1.431 and 1.532
- z-score of fold change, 1423028_at Ifna2 ([2]; samples x1-x3, Modules 29): 1.076 and 1.31 and 1.58
- z-score of fold change, 1425837_a_at Ccrn4l ([2]; samples x1-x3, Modules 29): 1.34 and 1.091 and 1.529
- z-score of fold change, 1436387_at C330006P03Rik///Homer1 ([2]; samples x1-x3, Modules 29): 1.372 and 1.437 and 1.158
